Source: US9234018B2, “Compositions and methods for the treatment of VprBP-related cancers” (University of Southern California, priority 2013, dated 2016)

Tests used:
LCK = LCK (Homo sapiens, UniProt P06239); test: Kinase selectivity panel; format: biochemical
CDK9 = CDK9 (Homo sapiens, UniProt P50750); test: Kinase selectivity panel; format: biochemical
HCK = HCK (Homo sapiens, UniProt P08631); test: Kinase selectivity panel; format: biochemical
RSK2 = RSK2 (Homo sapiens, UniProt P51812); test: Kinase selectivity panel; format: biochemical
PKM2 = PKM2 (Homo sapiens, UniProt P14618); test: Kinase selectivity panel; format: biochemical
Sequence of PKM2 (P14618 whole entry): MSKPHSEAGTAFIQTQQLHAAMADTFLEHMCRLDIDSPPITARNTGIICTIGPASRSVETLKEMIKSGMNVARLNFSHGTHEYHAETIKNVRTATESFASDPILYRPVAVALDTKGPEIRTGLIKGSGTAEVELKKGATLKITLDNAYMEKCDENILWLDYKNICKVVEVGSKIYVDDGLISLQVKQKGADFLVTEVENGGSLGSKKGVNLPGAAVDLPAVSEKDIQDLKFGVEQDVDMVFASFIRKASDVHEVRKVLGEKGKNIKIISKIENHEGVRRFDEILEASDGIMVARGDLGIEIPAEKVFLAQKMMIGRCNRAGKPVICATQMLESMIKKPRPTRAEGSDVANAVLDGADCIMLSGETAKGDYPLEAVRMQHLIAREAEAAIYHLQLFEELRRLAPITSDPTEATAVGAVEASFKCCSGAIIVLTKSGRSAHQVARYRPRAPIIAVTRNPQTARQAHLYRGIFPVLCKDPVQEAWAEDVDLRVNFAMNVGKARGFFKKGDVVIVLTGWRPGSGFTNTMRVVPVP

VRK2 = VRK2 (Homo sapiens, UniProt Q86Y07); test: Kinase selectivity panel; format: biochemical
DU145 cells = test: Cell proliferation (MTT) and soft agar colony formation; format: cell-based, human; settings: MTT 72 h and soft agar colonies
Procedure: Cell proliferation was assessed by the 3-(4,5-dimethylthiazol-2-yl)-2,5-diphenyltetrazolium bromide (MTT) assay as previously described (Kim, K. et al. (2012) Mol. Cell Biol. 32:783-796). To evaluate IC50 of compound B32B3 and B20H6, DU145 cells were treated with various concentrations (0.001, 0.005, 0.01, 0.05, 0.1, 1, 5, 10, and 20 μM) of compounds for 72 h and viability was measured by MTT assays. For soft agar colony formation assays, DU145 cells were treated with B32B3 (0.5, 1, and 3 μM). Cells were suspended in semisolid medium (DMEM 10% FBS plus 0.3% ultra pure noble agar) at concentrations of 2×10^5 cells/ml, added over a layer of 0.6% agar in RPMI on 35 mm plate and incubated for an additional 21 days. The colonies in each well were stained with 0.005% crystal violet in 20% ethanol, counted and photographed. All assays were run in triplicate, and results presented are the average of three individual experiments.

PLK1 = PLK1 (Homo sapiens, UniProt P53350); test: Kinase selectivity panel; format: biochemical
Sequence of PLK1 (P53350 whole entry): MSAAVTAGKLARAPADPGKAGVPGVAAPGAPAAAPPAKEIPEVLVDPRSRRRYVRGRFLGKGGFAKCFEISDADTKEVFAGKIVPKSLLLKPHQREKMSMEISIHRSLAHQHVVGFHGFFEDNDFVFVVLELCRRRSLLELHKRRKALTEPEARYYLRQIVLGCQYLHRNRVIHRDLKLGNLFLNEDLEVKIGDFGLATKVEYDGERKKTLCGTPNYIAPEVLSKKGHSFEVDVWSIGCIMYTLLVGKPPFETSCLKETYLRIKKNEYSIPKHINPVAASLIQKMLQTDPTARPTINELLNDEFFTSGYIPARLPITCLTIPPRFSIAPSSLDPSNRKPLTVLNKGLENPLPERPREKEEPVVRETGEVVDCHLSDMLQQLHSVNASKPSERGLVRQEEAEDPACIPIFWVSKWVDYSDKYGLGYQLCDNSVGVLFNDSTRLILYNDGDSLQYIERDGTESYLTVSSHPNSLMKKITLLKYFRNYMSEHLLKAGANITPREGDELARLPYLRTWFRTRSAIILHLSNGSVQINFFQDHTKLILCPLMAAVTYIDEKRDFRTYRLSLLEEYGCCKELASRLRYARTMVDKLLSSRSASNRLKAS

PRKCD = PRKCD (Homo sapiens, UniProt Q05655); test: Kinase selectivity panel; format: biochemical
Sequence of PRKCD (Q05655 whole entry): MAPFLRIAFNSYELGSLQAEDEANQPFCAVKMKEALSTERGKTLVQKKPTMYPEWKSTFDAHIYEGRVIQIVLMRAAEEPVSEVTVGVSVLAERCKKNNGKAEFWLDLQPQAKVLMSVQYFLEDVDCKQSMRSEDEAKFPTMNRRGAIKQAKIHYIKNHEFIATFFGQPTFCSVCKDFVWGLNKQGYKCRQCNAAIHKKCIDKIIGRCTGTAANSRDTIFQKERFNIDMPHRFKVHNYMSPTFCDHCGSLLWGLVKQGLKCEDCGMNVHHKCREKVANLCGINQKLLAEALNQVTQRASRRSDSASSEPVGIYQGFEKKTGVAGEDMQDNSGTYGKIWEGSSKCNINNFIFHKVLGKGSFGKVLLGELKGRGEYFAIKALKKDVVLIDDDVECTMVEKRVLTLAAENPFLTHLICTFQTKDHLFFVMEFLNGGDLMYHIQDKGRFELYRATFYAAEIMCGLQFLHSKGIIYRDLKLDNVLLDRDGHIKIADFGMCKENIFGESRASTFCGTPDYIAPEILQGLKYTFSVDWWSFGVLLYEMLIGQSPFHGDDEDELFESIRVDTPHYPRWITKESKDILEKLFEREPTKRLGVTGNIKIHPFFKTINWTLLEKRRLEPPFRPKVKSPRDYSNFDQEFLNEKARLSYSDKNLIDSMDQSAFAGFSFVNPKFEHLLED

CDK2 = CDK2 (Homo sapiens, UniProt P24941); test: Kinase selectivity panel; format: biochemical
DNAPK = DNAPK (Homo sapiens, UniProt P78527); test: Kinase selectivity panel; format: biochemical
CSNK1D = CSNK1D (Homo sapiens, UniProt P48730); test: Kinase selectivity panel; format: biochemical
Sequence of CSNK1D (P48730 whole entry): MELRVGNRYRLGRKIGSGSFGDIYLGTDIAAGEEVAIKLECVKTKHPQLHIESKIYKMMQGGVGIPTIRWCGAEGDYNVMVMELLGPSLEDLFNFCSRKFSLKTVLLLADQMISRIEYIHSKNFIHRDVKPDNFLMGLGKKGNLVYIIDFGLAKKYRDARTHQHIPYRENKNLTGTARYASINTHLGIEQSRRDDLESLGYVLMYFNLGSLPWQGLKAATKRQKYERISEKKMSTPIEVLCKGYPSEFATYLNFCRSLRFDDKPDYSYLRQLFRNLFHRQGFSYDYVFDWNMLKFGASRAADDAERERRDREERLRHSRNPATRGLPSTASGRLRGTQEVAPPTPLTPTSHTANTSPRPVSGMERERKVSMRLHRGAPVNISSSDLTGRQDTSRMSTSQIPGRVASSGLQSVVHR

AKT1 = AKT1 (Homo sapiens, UniProt P31749); test: Kinase selectivity panel; format: biochemical
Sequence of AKT1 (P31749 whole entry): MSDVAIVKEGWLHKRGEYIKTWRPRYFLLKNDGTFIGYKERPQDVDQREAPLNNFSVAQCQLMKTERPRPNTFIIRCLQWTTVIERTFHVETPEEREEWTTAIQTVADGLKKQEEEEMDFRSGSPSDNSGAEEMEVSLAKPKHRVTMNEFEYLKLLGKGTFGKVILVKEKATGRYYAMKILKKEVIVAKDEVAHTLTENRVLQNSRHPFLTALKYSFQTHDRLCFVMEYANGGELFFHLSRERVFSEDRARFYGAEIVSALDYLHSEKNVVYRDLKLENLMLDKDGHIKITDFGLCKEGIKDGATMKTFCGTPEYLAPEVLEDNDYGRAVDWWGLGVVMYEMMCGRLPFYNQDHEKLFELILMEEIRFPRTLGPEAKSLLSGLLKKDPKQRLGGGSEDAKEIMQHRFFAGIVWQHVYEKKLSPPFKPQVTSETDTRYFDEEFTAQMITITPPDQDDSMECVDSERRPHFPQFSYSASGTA

H2AT120p in DU145 cells = test: Cellular H2AT120p by western blotting and immunostaining; format: cell-based, human
Procedure: To this end, Applicants' inhouse small-molecule library of 5,000 compounds was screened. […] To evaluate their cellular effects, DU145 cells were treated with the compounds in the concentration range of […] for 24 hr. […] Thus, although Applicants cannot exclude the possibility that other kinases that were not included in the selectivity screen might be affected, B32B3 can be defined as a highly specific VprBP inhibitor at present.
The levels of VprBP and H2AT120p in tumors tissues were determined in FDA human tumor organ tissue microarray, which includes 16 types of organ cancer with matched or unmatched adjacent normal tissue (US Biomax, Inc). The formalin-fixed, paraffin-embedded sections were blocked by treating with blocking reagent (50 mM Tris-HCl, pH 7.5, 150 mM NaCl, 0.3% Triton X-100, and 5% normal goat serum) for 30 min at room temperature and incubated with VprBP and H2AT120p antibodies at 4° C. overnight. Immunodetection was performed using ABC reagent (Vectorstain). DAB (Vector Lab) was used for color development and hematoxylin (Sigma) was used for counterstaining. The intensity and distribution patterns of staining were evaluated by semiquantitative immunohistochemical assessment. The intensity of staining was graded from − to +++ (−, no staining; +, weak staining; ++, moderate staining; and +++, strong staining) The distribution of staining was classified from 0 to 3 (0, 0-20%; 1, 21-50%; 2, 51-80%; 3, 81-100%). For immunofluorescence of DU145 cells, cells were treated with DMSO or B32B3 (0.5 μM) for 24 h and fixed with 4% paraformaldehyde for 15 min. The corresponding samples were permeabilized with 0.3% Triton X-100 for 15 min and immunostained with H2AT120p antibody.

STK33 = STK33 (Homo sapiens, UniProt Q9BYT3); test: Kinase selectivity panel; format: biochemical
[1] = B32B3 stability assessment in plasma; format: in vitro ADME; settings: mouse plasma
Procedure: To assess the metabolic stability of B32B3 in mouse, dog, monkey, and human plasma, the compound was spiked into blank plasma to a concentration of 10 μM. At 0, 15, 30, 60, 90, and 120 min time points, a 30 μl aliquot was collected and mixed with 270 μl acetonitrile solution for protein precipitation. After centrifugation, the supernatant was analyzed by LC-MS/MS. In vitro half-life of B32B3 in plasma was calculated using the slope (k) of the log-linear regression from the concentration remaining parent compound versus time. T1/2=−ln 2/k Mouse Pharmacokinetics of B32B3

SYK = SYK (Homo sapiens, UniProt P43405); test: Kinase selectivity panel; format: biochemical
PLK2 = PLK2 (Homo sapiens, UniProt Q9NYY3); test: Kinase selectivity panel; format: biochemical
Sequence of PLK2 (Q9NYY3 whole entry): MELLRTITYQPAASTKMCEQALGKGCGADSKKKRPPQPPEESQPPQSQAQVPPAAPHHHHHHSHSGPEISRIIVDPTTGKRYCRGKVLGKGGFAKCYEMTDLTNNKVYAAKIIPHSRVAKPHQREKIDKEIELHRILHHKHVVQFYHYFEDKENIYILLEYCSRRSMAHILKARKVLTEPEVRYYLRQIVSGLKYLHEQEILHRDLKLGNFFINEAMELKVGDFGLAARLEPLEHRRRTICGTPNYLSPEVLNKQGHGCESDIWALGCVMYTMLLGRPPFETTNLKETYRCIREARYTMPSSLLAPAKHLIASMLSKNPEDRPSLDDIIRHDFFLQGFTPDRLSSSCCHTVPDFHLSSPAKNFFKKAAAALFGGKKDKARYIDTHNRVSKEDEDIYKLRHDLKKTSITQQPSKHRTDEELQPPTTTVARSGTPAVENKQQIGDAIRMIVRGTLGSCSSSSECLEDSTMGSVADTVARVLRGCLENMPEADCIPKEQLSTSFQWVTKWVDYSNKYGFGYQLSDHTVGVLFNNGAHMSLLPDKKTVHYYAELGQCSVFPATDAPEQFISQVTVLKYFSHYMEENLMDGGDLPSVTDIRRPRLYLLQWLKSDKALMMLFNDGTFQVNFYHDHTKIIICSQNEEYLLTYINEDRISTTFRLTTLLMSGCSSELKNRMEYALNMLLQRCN

Sequence of LCK (P06239 whole entry): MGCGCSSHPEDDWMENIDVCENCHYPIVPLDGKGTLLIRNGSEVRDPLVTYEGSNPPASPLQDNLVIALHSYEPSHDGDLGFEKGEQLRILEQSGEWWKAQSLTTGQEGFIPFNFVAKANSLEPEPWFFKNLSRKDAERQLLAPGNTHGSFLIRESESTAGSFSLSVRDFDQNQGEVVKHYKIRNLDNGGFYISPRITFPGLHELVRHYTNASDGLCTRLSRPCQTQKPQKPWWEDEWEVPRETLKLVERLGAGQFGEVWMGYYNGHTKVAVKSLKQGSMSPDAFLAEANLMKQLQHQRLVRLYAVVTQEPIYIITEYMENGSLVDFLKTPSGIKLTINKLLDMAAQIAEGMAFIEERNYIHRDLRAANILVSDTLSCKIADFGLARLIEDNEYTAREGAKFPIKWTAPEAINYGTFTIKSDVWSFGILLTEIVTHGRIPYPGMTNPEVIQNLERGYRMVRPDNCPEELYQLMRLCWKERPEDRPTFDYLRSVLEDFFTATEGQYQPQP
Sequence of CDK9 (P50750 whole entry): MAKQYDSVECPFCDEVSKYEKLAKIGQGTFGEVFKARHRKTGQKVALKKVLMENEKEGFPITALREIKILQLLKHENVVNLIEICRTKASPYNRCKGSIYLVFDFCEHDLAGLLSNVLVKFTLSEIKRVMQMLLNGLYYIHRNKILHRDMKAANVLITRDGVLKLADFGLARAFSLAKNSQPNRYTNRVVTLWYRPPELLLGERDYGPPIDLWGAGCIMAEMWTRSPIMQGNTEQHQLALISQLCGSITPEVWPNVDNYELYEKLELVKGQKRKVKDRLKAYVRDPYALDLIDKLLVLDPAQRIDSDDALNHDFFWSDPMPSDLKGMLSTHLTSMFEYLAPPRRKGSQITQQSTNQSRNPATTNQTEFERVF
Sequence of CDK9 (O60563 whole entry partner): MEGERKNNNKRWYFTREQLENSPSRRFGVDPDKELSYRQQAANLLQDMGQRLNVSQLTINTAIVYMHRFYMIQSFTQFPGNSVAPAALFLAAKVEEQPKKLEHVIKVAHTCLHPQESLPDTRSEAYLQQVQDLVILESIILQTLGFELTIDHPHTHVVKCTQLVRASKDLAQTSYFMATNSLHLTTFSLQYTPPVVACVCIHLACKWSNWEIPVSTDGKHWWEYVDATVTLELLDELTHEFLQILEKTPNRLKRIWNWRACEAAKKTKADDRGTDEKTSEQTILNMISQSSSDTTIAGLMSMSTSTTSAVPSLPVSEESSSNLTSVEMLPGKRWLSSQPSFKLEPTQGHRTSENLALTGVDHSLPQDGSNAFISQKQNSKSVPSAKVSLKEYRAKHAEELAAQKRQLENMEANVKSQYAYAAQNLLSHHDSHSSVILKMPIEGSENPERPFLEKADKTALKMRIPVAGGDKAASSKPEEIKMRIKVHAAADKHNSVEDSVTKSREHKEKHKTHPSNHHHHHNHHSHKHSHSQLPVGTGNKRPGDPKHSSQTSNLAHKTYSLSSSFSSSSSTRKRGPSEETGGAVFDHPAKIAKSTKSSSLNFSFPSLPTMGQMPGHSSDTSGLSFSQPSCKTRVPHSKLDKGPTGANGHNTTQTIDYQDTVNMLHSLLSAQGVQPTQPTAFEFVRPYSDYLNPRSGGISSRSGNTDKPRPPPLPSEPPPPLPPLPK

c1ccc2c(CNNc3ncnc4sc5c(c34)CCCC5)c[nH]c2c1 [B32B3]
IC50 (LCK): > 10 µM
IC50 (CDK9): > 10 µM
IC50 (HCK): > 10 µM
IC50 (RSK2): 8.6 µM
IC50 (PKM2): > 10 µM
IC50 (VRK2): > 10 µM
Effect on cell proliferation / cell growth (DU145 cells): inhibition of cell proliferation
IC50 (PLK1): > 10 µM
IC50 (PRKCD): > 10 µM
IC50 (CDK2): > 10 µM
IC50 (DNAPK): > 10 µM
IC50 (CSNK1D): > 10 µM
IC50 (AKT1): > 10 µM
Potency in cells overexpressing VprBP (H2AT120p in DU145 cells; DU145 cells overexpressing VprBP, 24 h): considerably less potent
IC50 (H2AT120p in DU145 cells; Homo sapiens, DU-145, DU145 cells, 24 hr, 0-5 mM, read-out: IC50 for inhibition of H2AT120p): 0.5 µM
Decrease in IC50 (H2AT120p) upon knockdown of VprBP (H2AT120p in DU145 cells; VprBP-knockdown DU145 cells, 24 h): circa 2 fold
IC50 (STK33): > 10 µM
half-life at 10 μM [1]: ~7 h
IC50 (SYK): > 10 µM
IC50 (PLK2): > 10 µM
